Test results as given in US20240299349A1, “TREATMENT OR PREVENTION OF LEUKAEMIA” (VESTLANDETS INNOVASJONSSELSKAP AS, priority 2019, published 2024).

How the values were obtained:
[1] = test system: MOLM-13 cell line; assay: WST-1 cell viability assay, 24 hours treatment, MOLM-13; type: cell-based, human; conditions: MOLM-13, 24 hours; for cytotoxicity / %-viability: 0.001-100 μM, WST-1; for cell survival dose/response curve in the mitochondria metabolism assay (WST-1): FIG. 1
Method: (§1) The cell lines HL60 and MOLM-13 were treated with the various compounds for 24 hours. The cell viability assay WST-1 was used to determine the cytotoxic effect and to generate the dose-response curves and IC50 values.
(§2) The two human cell lines HL60 and MOLM-13 reflect the aggressive blood cancer acute myeloid leukaemia (AML). These cell lines (obtained from the American Type Culture Collection, ATCC) were cultured in RPMI 1640, 2 mM L-Glutamine, 50 UmL^−1 penicillin/streptomycin (Sigma Aldrich) and 10% fetal bovine serum (Biowest) and incubated in humidified atmosphere at a temperature of 37° C. under 5% CO2. The cells (2×10^5 cells×mL^−1) were treated with various concentrations (0.001 μM→100 μM) of the compounds for a period of 24 hours. Metabolic cell activity (i.e. cell viability) was measured using the WST-1 cell proliferation agent (Roche) and read on a […] plate reader (Infinite 200 Pro, Tecan). Selected cell samples were analysed after nuclear staining with Hoechst to determine apoptotic nuclear fragmentation.

[2] = test system: HL60 cell line; assay: WST-1 cell viability assay, 24 hours treatment, HL60; type: cell-based, human; conditions: HL60, 24 hours; for cytotoxicity / %-viability: 0.001-100 μM, WST-1; for cell survival dose/response curve in the mitochondria metabolism assay (WST-1): FIG. 1
Method: as §1, §2

Row | melting point [°C] | SMILES | cytotoxicity / %-viability [1] | cell survival dose/response curve in the mitochondria metabolism assay (WST-1) [1] | cytotoxicity / %-viability [2] | cell survival dose/response curve in the mitochondria metabolism assay (WST-1) [2]
1 |  | COC1=C(C)C(C)(O)c2[nH]c3ccccc3c2C1=O (stereo not drawn) [Compound 13, 1-hydroxy-3-methoxy-1,2-dimethyl-1,9-dihydro-4H-carbazol-4-one, reference compound] | not to exhibit cytotoxicity | more limited dose/response curves | not to exhibit cytotoxicity | more limited dose/response curves
2 |  | COC1=C(C)C(=O)c2[nH]c3ccccc3c2C1=O [Compound 12, 3-methoxy-2-methyl-1-carbazole-1,4 (9H)-dione] |  | more limited dose/response curves |  | more limited dose/response curves
3 |  | COc1c(C)c(OC)c(OC(C)=O)c(-c2ccccc2)c1NC(C)=O [Compound 9, 6-acetamido-3,5-dimethoxy-4-methyl-(1,1′-biphenyl)-2-yl acetate] | weaker cytotoxicity | more limited dose/response curves | weaker cytotoxicity | more limited dose/response curves
4 |  | COc1cccc(-c2c(N)c(OC)c(C)c(OC)c2O)c1 [Compound 8a, 6-amino-3,3′,5-trimethoxy-4-methyl-[1,1′-biphenyl]-2-ol] |  | rapid decrease in cell survival |  | rapid decrease in cell survival
5 |  | COc1c(C)c(OC)c(O)c(-c2ccccc2)c1N [Compound 8, 6-amino-3,5-dimethoxy-4-methyl-[1,1′-biphenyl]-2-ol] | substantial drop in %-viability | rapid decrease in cell survival | substantial drop in %-viability | rapid decrease in cell survival
6 | 102.7 | COc1c(C)c(OC)c([N+](=O)[O-])c(-c2ccccc2)c1O [Compound 7, 3,5-dimethoxy-4-methyl-6-nitrobiphenyl-2-ol] | minor decrease in %-viability | more limited dose/response curves | minor decrease in %-viability | more limited dose/response curves
7 |  | COc1cccc(-c2c(NC(C)=O)c(OC)c(C)c(OC)c2OC(C)=O)c1 [Compound 9a, 6-acetamido-3,3′,5-trimethoxy-4-methyl-(1,1′-biphenyl)-2-yl acetate] |  | more limited dose/response curves |  | more limited dose/response curves
8 |  | COc1c(C)c(OC)c2[nH]c3ccccc3c2c1O [Compound 11, 1,3-dimethoxy-2-methyl-9H-carbazol-4-ol] | major cytotoxicity | rapid decrease in cell survival | major cytotoxicity | rapid decrease in cell survival
9 |  | COc1cccc(-c2c(O)c(OC)c(C)c(OC)c2[N+](=O)[O-])c1 [Compound 7a, 3,3′,5-trimethoxy-4-methyl-6-nitro-[1,1′-biphenyl]-2-ol] |  | rapid decrease in cell survival |  | rapid decrease in cell survival
10 |  | COc1c(C)c(OC)c2c(c1OC(C)=O)c1ccccc1n2C(C)=O [Compound 10, 9-acetyl-1,3-dimethoxy-2-methyl-9H-carbazol-4-yl acetate] | did not show any influence on the cytotoxicity | rapid decrease in cell survival | did not show any influence on the cytotoxicity | rapid decrease in cell survival
